Results from publication PMC11345829, “Discovery of Potent Isoquinolinequinone N-Oxides to Overcome Cancer Multidrug Resistance” (Journal of Medicinal Chemistry, 2024).

Key:
NCI-H460/R = assay: SRB cell growth inhibition assay; assay type: cell-based, human; conditions: for selectivity ratio NSCLC: GI50 sensitive NCI-H460 / GI50 MDR NCI-H460/R; for GI50: Homo sapiens, NCI-H460, SRB assay, 48 h, NSCLC MDR, mean ± SEM
Description: Two distinct pairs of counterpart drug-sensitive and MDR human tumor cell lines were used, namely the non-small lung cancer (NSCLC) NCI-H460 (same cell line as in the NCI screen) and its MDR counterpart cell line NCI-[…] and the colorectal cancer DLD1 and its MDR counterpart cell line DLD1-TxR (Table 3). The screening was performed using the SRB assay, and the GI50 for each compound was determined by interpolation on the attained concentration-response curves and compared with NCI60 screening data (SI, Figures S62-S63; Table S21). Two pairs of drug-sensitive and multidrug-resistant (MDR) cell lines from human nonsmall cell lung cancer (NSCLC), NCI-H460 and NCI-[…], and colorectal cancer, DLD1 and DLD1-TxR, kindly provided by Dr M. […] The A549 cell line was maintained in Dulbecco's Modified Eagle Medium (DMEM) supplemented with 4.5 g/L Glucose with UltraGlutamine with sodium pyruvate (Lonza, Basel Stücki, Switzerland), enriched with 10% fetal bovine serum (FBS; Biowest, Nuaillé, France). […] For the sulforhodamine B (SRB) and 3D cell culture assays, the media were supplemented with 5% FBS. The remaining experiments were performed with medium supplemented with 10% FBS. […] The SRB assay was performed as previously described.[78],[79] Briefly, after fixing cells with 10% (w/v) ice-cold trichloroacetic acid (Merck Life Science), the proteins were stained with 0.4% of SRB (Merck Life Science) in acetic acid (Merck Life Science). Following washing steps in acetic acid, the bound dye was solubilized with 10 mM Tris base solution (Merck Life Science). Absorbance was measured at 510 nm in a multiplate reader (Synergy Mx, Biotek Instruments Inc., Winooski, Vermont, USA) using the Gen5 software (Biotek Instruments Inc.).

[1] = tested on: NCI60 tumor cell line panel; parameters: method as in PMID 31894828; conditions: against 53 human tumor cell lines; cited from earlier work
NCI-H460 [2] = assay: NCI60 five-dose GI50 (NCI data); assay type: cell-based; conditions: Homo sapiens, NCI data provided for comparison, read-out: NSCLC NCI-H460 GI50 (NCI)
Description: The concentration−response curve generated enables the determination of three criteria, GI50 (drug concentration at which 50% of cell growth is inhibited), total growth inhibition (TGI) and LC50 (drug concentration at which 50% of tumor cells are killed) which can be used to compare effectiveness against any compound tested in the screen since its inception.
S2.1 NCI Screening Assay Experimental details
NCI Screening Assay Experimental: Cancer cell growth assays (NCI60 screening) 5,6 One-dose study: Tested compounds were initially solubilised in DMSO, diluted into RPMI 1640 and 5% fetal bovine serum/L-glutamine, and added to 96-well plates containing cell lines previously cultured for 24 h. After 48 h incubation, the media were removed, and the cells were fixed and stained with sulforhodamine B to determine overall percent growth/ total protein content. Unbound dye was removed with five washes of 1% acetic acid, and the plates were allowed to air dry. The dye was then resolubilised in Tris buffer, and the colorimetric absorbance was measured (515 nm). Growth inhibition was measured relative to the response generated from proliferating cells cultured under identical conditions for 48 h. Data from one-dose experiments pertains to the percentage growth at […]
Five-dose study: Serial 5 × 10-fold dilution from an initial DMSO stock solution was performed, prior to incubation at each individual concentration (10 nM, 100 nM, 1 μM, 10 μM and 100 μM). Using seven absorbance measurements (time zero (Tz), control growth (C), and test growth in the presence of drug at the five concentration levels (Ti)), the percentage growth was calculated at each of the drug concentrations levels. Percentage growth inhibition was calculated as: [(Ti − Tz)/(C − Tz)] × 100 for concentrations for which Ti ≥ Tz, [(Ti − Tz)/Tz] × 100 for concentrations for which Ti < Tz. Three dose response parameters were calculated for each experimental agent. […]
was calculated from [(Ti − Tz)/(C − Tz)] × 100 = 50, which is the drug concentration resulting in a 50% reduction in the net protein increase (as measured by sulforhodamine B staining) in control cells during the drug incubation. The drug concentration resulting in total growth inhibition (TGI) was calculated from Ti = Tz. The LC50 (concentration of drug resulting in a 50% reduction in the measured protein at the end of the drug treatment as compared to that at the beginning) indicating a net loss of cells following treatment was calculated from [(Ti − Tz)/Tz] × 100 = −50. Values were calculated for each of these three parameters if the level of activity was reached; however, if the effect was not reached or was exceeded, the value for that parameter was expressed as greater or less than the maximum or minimum concentration tested.

DLD1 = assay: SRB cell growth inhibition assay; assay type: cell-based; conditions: Homo sapiens, DLD-1, 48 h, colorectal cancer sensitive, mean ± SEM
Description: (§1) Taking into consideration the promising results of preliminary NCI screening, nine compounds (1, 2, 3, 4, 5, 20, 23, 24, 25) were selected for further screening in two counterpart pairs of sensitive and MDR cell lines. […] Two distinct pairs of counterpart drug-sensitive and MDR human tumor cell lines were used, namely the non-small lung cancer (NSCLC) NCI-H460 (same cell line as in the NCI screen) and its MDR counterpart cell line NCI-H460/R and the colorectal cancer DLD1 and its MDR counterpart cell line DLD1-TxR (Table 3). The screening was performed using the SRB assay, and the GI50 for each compound was determined by interpolation on the attained concentration−response curves and compared with NCI60 screening data (SI, Figures S62−S63; Table S21).
(§2) Two pairs of drug-sensitive and multidrug-resistant (MDR) cell lines from human nonsmall cell lung cancer (NSCLC), NCI-H460 and NCI-H460/R, and colorectal cancer, DLD1 and DLD1-TxR, kindly provided by Dr M. Pešić (Belgrade, Serbia), were used to evaluate the growth inhibition potential of the compounds 1, 2, 3, 4, 5, 20, 23, 24, an 25.[76],[77] Additionally, growth inhibition assays were performed with compound 25 on two other NSCLC cell lines, A549 and NCI-H322, obtained from the American Type Culture Collection (ATCC) and the European Collection of Authenticated Cell Cultures, respectively. The A549 cell line was maintained in Dulbecco’s Modified Eagle Medium (DMEM) supplemented with 4.5 g/L Glucose with UltraGlutamine with sodium pyruvate (Lonza, Basel Stücki, Switzerland), enriched with 10% fetal bovine serum (FBS; Biowest, Nuaillé, France). The lung fibroblast MRC-5 cell line and the remaining NSCLC and colorectal cancer cell lines were cultured in Roswell Park Memorial Institute (RPMI) 1640 (with stable glutamine and 25 mM HEPES) medium (Biowest), supplemented with 10% fetal bovine serum. […] For the sulforhodamine B (SRB) and 3D cell culture assays, the media were supplemented with 5% FBS. The remaining experiments were performed with medium supplemented with 10% FBS.
(§3) Cells were seeded at a previously determined optimal cell concentration (5.0 × 10^4 cells/mL for NSCLC cells and the nontumorigenic MRC-5 cell line and 1.0 × 10^5 cells/mL for colorectal cancer cells) and incubated at 37 °C for 24 h. […] The SRB assay was performed as previously described.[78],[79] Briefly, after fixing cells with 10% (w/v) ice-cold trichloroacetic acid (Merck Life Science), the proteins were stained with 0.4% of SRB (Merck Life Science) in acetic acid (Merck Life Science). Following washing steps in acetic acid, the bound dye was solubilized with 10 mM Tris base solution (Merck Life Science). Absorbance was measured at 510 nm in a multiplate reader (Synergy Mx, Biotek Instruments Inc., Winooski, Vermont, USA) using the Gen5 software (Biotek Instruments Inc.).

NCI-H460 [3] = assay: SRB cell growth inhibition assay; assay type: cell-based; conditions: Homo sapiens, 48 h, NSCLC sensitive, mean ± SEM
Description: as §1, §2, §3

DLD1-TxR = assay: SRB cell growth inhibition assay; assay type: cell-based, human; conditions: for selectivity ratio colorectal cancer: GI50 sensitive DLD1 / GI50 MDR DLD1-TxR; for GI50: Homo sapiens, SRB assay, 48 h, colorectal cancer MDR, mean ± SEM
Description: Two distinct pairs of counterpart drug-sensitive and MDR human tumor cell lines were used, namely the non-small lung cancer (NSCLC) NCI-H460 (same cell line as in the NCI screen) and its MDR counterpart cell line NCI-H460/R and the colorectal cancer DLD1 and its MDR counterpart cell line DLD1-TxR (Table 3). The screening was performed using the SRB assay, and the GI50 for each compound was determined by interpolation on the attained concentration−response curves and compared with NCI60 screening data (SI, Figures S62−S63; Table S21).
as §2, §3

NCI-H460/R spheroids = assay: Cell Titer-Glo 3D spheroid viability assay; assay type: cell-based, human; conditions: 48 h; 25 at 0.35 and 0.7 μM; etoposide 2 μM
Description: Results are presented as the % of luciferase luminescence relative to the “blank” cells (medium).
Spheroid formation was conducted in 12-series agarose 3D Petri Dish micromolds (MicroTissues Technology, MicroTissues Inc., Sigma-Aldrich). The agarose micromolds were prepared using 1% agarose in a 0.9% NaCl solution and then placed in 12-well plates and equilibrated with RPMI supplemented with 10% FBS for at least 2 h before cell seeding. Cell suspensions corresponding to 500 cells per spheroid of the NSCLC cell lines (NCI-H460 and NCI-H460/R), and 1000 cells per spheroid of the colorectal cancer cell lines (DLD1 and DLD1-TxR) were seeded in the corresponding micromolds. […] Spheroid formation was monitored with the Leica DMi1 microscope. […] At the end of the treatment, images from at least 8 different spheroids per condition were captured on the Leica Dmi1 microscope, and posteriorly analyzed with the automated open-source software AnaSP.[82] Spheroid parameters, such as equivalent diameter, circularity, and compactness, were calculated.
Spheroid viability was determined through the luminescence-based Cell Titer-Glo 3D cell viability assay (Promega). […] The plate was then incubated in the dark for 5 min with agitation and allowed to rest for 25 min before luminescence measurement. Luminescence was quantified using the microplate reader Synergy MX coupled with the GEN5 software. […]

NCI-ADR/RES = tested on: NCI-ADR/RES; parameters: method as in PMID 31894828; conditions: MDR cell line, high P-gp; read-out: growth inhibition (GI50) NCI/ADR-RES; cited from earlier work

Row | SMILES | selectivity ratio NSCLC (NCI-H460/R) | GI50 (NCI-H460/R) [µM] | GI50 [1] [µM] | GI50 (NCI-H460 [2]) [µM] | GI50 (DLD1) [µM] | GI50 (NCI-H460 [3]) [µM] | selectivity ratio colorectal cancer (DLD1-TxR) | GI50 (DLD1-TxR) [µM] | viability of NCI-H460/R spheroids (NCI-H460/R spheroids) | GI50 (NCI-ADR/RES) [µM]
1 | COC(=O)c1c2c(c(C)[n+]([O-])c1C)C(=O)C=CC2=O [Compound 3] | 2 | 4.28 ± 1.08 | 1.75 | 0.731 | 6.62 ± 0.35 | 8.43 ± 1.41 | 1.4 | 4.8 ± 0.07 |  | 
2 | COc1cc([C@@H]2c3cc4c(cc3[C@@H](O[C@@H]3O[C@@H]5CO[C@@H](C)O[C@H]5[C@H](O)[C@H]3O)[C@H]3COC(=O)[C@H]23)OCO4)cc(OC)c1O [etoposide, reference compound] |  |  |  |  |  |  |  |  | did not significantly affect the viability of the spheroids | 
3 | CC(=O)O[C@H]1C(=O)[C@@]2(C)[C@H]([C@H](OC(=O)c3ccccc3)[C@]3(O)C[C@H](OC(=O)[C@H](O)[C@@H](NC(=O)c4ccccc4)c4ccccc4)C(C)=C1C3(C)C)[C@]1(OC(C)=O)CO[C@@H]1C[C@@H]2O [paclitaxel, reference compound] |  |  |  |  | 0.02 ± 0.003 |  |  | 0.97 ± 0.21 |  | 
4 | COC(=O)c1c2c(c(C)[n+]([O-])c1C)C(=O)C(NCc1ccccc1)=CC2=O [Compound 1] | 1.3 | 2.29 ± 0.28 | 2.52 | 2.72 | 4.89 ± 0.51 | 3.06 ± 0.15 | 1.7 | 2.97 ± 0.13 |  | 2.67
